PubChem BioAssay (NCI)
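Results reflect a 48-hour exposure of cells in 96-well plates to compound at five concentrations. The concentration for full growth arrest is given as TGI.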

Columns and labels:
Experiment in all cases: NCI tumour cell line growth inhibition, 48 h
[1] = tested on: 786-0 renal
[2] = tested on: A498 renal
[3] = tested on: A549 NSCLC
[4] = tested on: ACHN renal
[5] = tested on: BT-549 breast
[6] = tested on: CAKI-1 renal
[7] = tested on: CCRF-CEM leukemia
[8] = tested on: COLO 205 colon
[9] = tested on: DU-145 prostate
[10] = tested on: EKVX NSCLC
[11] = tested on: HCC-2998 colon
[12] = tested on: HCT-116 colon
[13] = tested on: HCT-15 colon
[14] = tested on: HL-60(TB) leukemia
[15] = tested on: HOP-62 NSCLC
[16] = tested on: HOP-92 NSCLC
[17] = tested on: HS 578T breast
[18] = tested on: HT29 colon
[19] = tested on: IGROV1 ovarian
[20] = tested on: K-562 leukemia
[21] = tested on: KM12 colon
[22] = tested on: LOX IMVI melanoma
[23] = tested on: M14 melanoma
[24] = tested on: MALME-3M melanoma
[25] = tested on: MCF7 breast
[26] = tested on: MDA-MB-231 breast
[27] = tested on: MDA-MB-435
[28] = tested on: MDA-N
[29] = tested on: MOLT-4 leukemia
[30] = tested on: NCI-H226 lung
[31] = tested on: NCI-H23 lung
[32] = tested on: NCI-H460 lung
[33] = tested on: NCI-H522 lung
[34] = tested on: NCI/ADR-RES ovarian
[35] = tested on: OVCAR-3 ovarian
[36] = tested on: OVCAR-4 ovarian
[37] = tested on: OVCAR-5 ovarian
[38] = tested on: OVCAR-8 ovarian
[39] = tested on: PC-3 prostate
[40] = tested on: RPMI-8226 leukemia
[41] = tested on: RXF 393 renal
[42] = tested on: SF-268 CNS
[43] = tested on: SF-295 CNS
[44] = tested on: SF-539 CNS
[45] = tested on: SK-MEL-2 melanoma
[46] = tested on: SK-MEL-28 melanoma
[47] = tested on: SK-MEL-5 melanoma
[48] = tested on: SK-OV-3 ovarian
[49] = tested on: SN12C renal
[50] = tested on: SNB-19 CNS
[51] = tested on: SNB-75 CNS
[52] = tested on: SR leukemia
[53] = tested on: SW-620 colon
[54] = tested on: T-47D breast
[55] = tested on: TK-10 renal
[56] = tested on: U251 CNS
[57] = tested on: UACC-257 melanoma
[58] = tested on: UACC-62 melanoma
[59] = tested on: UO-31 renal

`Cc1c(-c2ccccc2)c(-c2ccc(OCCN(C)C)cc2)n2ccccc12` was tested, and the TGI [1] was 20.9 µM, the TGI [2] was 29.1 µM and the TGI [3] was 29 µM. It also gave a TGI [4] of 27.8 µM, a TGI [5] of 18.7 µM and a TGI [6] of 23.9 µM. The TGI [7] was 15.5 µM, the TGI [8] was 3.08 µM and the TGI [9] was 26.3 µM. The TGI [10] was 31.8 µM, the TGI [11] was 3.27 µM and the TGI [12] was 19 µM. For the same compound, the TGI [13] was 8.06 µM, the TGI [14] was 19.4 µM and the TGI [15] was 28.6 µM. For the same compound, the TGI [16] was 24.6 µM, the TGI [17] was 20.9 µM and the TGI [18] was 3.46 µM. The TGI [19] was 23.8 µM, the TGI [20] was 4.14 µM and the TGI [21] was 15.1 µM. It also gave a TGI [22] of 5.81 µM, a TGI [23] of 3.45 µM and a TGI [24] of 17.3 µM. For the same compound, the TGI [25] was 23.7 µM, the TGI [26] was 23.6 µM and the TGI [27] was 11.4 µM. The TGI [28] was 14.3 µM, the TGI [29] was 15.8 µM and the TGI [30] was 30.9 µM. The TGI [31] was 32 µM, the TGI [32] was 7.3 µM and the TGI [33] was 24 µM. For the same compound, the TGI [34] was 27.5 µM, the TGI [35] was 26.1 µM and the TGI [36] was 26.1 µM. The TGI [37] was 28.8 µM, the TGI [38] was 28.5 µM and the TGI [39] was 20.3 µM. The TGI [40] was 6.96 µM, the TGI [41] was 25.7 µM and the TGI [42] was 34.2 µM. The TGI [43] was 26.7 µM, the TGI [44] was 24.8 µM and the TGI [45] was 21.2 µM. It also gave a TGI [46] of 3.45 µM, a TGI [47] of 3.44 µM and a TGI [48] of 30.2 µM. For the same compound, the TGI [49] was 25.4 µM, the TGI [50] was 25.3 µM and the TGI [51] was 22.4 µM. For the same compound, the TGI [52] was 6.49 µM, the TGI [53] was 17.9 µM and the TGI [54] was 22.9 µM. The TGI [55] was 27.3 µM, the TGI [56] was 24.7 µM and the TGI [57] was 4.16 µM. It also gave a TGI [58] of 3.66 µM and a TGI [59] of 23.7 µM.
`C[N+](C)(C)CC1Cc2ccccc2C1=O` (centres undefined) gave a TGI [1] greater than 10 µM, a TGI [2] greater than 10 µM and a TGI [3] greater than 10 µM. It also gave a TGI [4] greater than 10 µM, a TGI [5] greater than 10 µM and a TGI [6] greater than 8.58 µM. It also gave a TGI [7] of 4.22 µM, a TGI [8] greater than 6.59 µM and a TGI [9] greater than 10 µM. For the same compound, the TGI [10] was greater than 10 µM, the TGI [11] was greater than 10 µM and the TGI [12] was 3.11 µM. For the same compound, the TGI [13] was greater than 10 µM, the TGI [14] was 4.45 µM and the TGI [15] was greater than 10 µM. For the same compound, the TGI [16] was greater than 10 µM, the TGI [17] was greater than 10 µM and the TGI [18] was greater than 10 µM. The TGI [19] was greater than 10 µM, the TGI [20] was 5.07 µM and the TGI [21] was greater than 10 µM. It also gave a TGI [22] greater than 10 µM, a TGI [23] greater than 6.99 µM and a TGI [24] of 4.53 µM. The TGI [25] was 5.41 µM, the TGI [26] was greater than 10 µM and the TGI [27] was greater than 10 µM. It also gave a TGI [28] greater than 10 µM, a TGI [29] of 4.95 µM and a TGI [30] greater than 10 µM. For the same compound, the TGI [31] was greater than 10 µM, the TGI [32] was greater than 10 µM and the TGI [33] was 4.56 µM. It also gave a TGI [34] greater than 6.85 µM, a TGI [35] greater than 10 µM and a TGI [36] of 8.07 µM. It also gave a TGI [37] greater than 10 µM, a TGI [38] greater than 3.16 µM and a TGI [39] greater than 10 µM. It also gave a TGI [40] greater than 6.86 µM, a TGI [41] greater than 10 µM and a TGI [42] greater than 10 µM. For the same compound, the TGI [43] was greater than 10 µM, the TGI [44] was greater than 10 µM and the TGI [45] was greater than 10 µM. The TGI [46] was greater than 10 µM, the TGI [47] was greater than 10 µM and the TGI [48] was greater than 10 µM. It also gave a TGI [49] greater than 10 µM, a TGI [50] greater than 10 µM and a TGI [51] greater than 10 µM. The TGI [52] was 7.11 µM, the TGI [53] was 3.84 µM and the TGI [54] was 6.49 µM. The TGI [55] was greater than 10 µM, the TGI [56] was greater than 10 µM and the TGI [57] was greater than 10 µM. It also gave a TGI [58] greater than 10 µM and a TGI [59] greater than 10 µM.
`COC(=O)n1c(=O)nc2c3c(ncn21)Oc1c(c(-c2ccccc2)nn1-c1ccccc1)C3c1ccc(Cl)cc1` (centres undefined) gave a TGI [1] of 2.81 µM, a TGI [2] of 5.02 µM and a TGI [3] of 3.15 µM. It also gave a TGI [4] of 3.21 µM, a TGI [5] of 17.7 µM and a TGI [6] of 2.98 µM. It also gave a TGI [7] of 3.27 µM, a TGI [8] of 2.76 µM and a TGI [9] of 2.98 µM. It also gave a TGI [11] of 2.72 µM, a TGI [12] of 2.17 µM and a TGI [13] of 2.95 µM. The TGI [14] was 3.17 µM, the TGI [15] was 3.09 µM and the TGI [16] was 3.39 µM. The TGI [17] was 2.62 µM, the TGI [18] was 2.9 µM and the TGI [20] was 3.37 µM. For the same compound, the TGI [21] was 2.66 µM, the TGI [22] was 2.79 µM and the TGI [23] was 2.75 µM. It also gave a TGI [24] of 2.21 µM, a TGI [25] of 3.06 µM and a TGI [26] of 3.05 µM. The TGI [27] was 3.02 µM, the TGI [28] was 3.01 µM and the TGI [30] was 3.42 µM. The TGI [31] was 3.96 µM, the TGI [32] was 3.09 µM and the TGI [33] was 2.82 µM. For the same compound, the TGI [34] was 2.77 µM, the TGI [35] was 2.72 µM and the TGI [36] was 4.66 µM. For the same compound, the TGI [37] was 2.58 µM, the TGI [39] was 2.94 µM and the TGI [40] was 4.07 µM. It also gave a TGI [41] of 2.98 µM, a TGI [43] of 3.04 µM and a TGI [44] of 3.14 µM. It also gave a TGI [45] of 3.07 µM, a TGI [46] of 3.18 µM and a TGI [47] of 3.16 µM. It also gave a TGI [48] of 12.1 µM, a TGI [49] of 3.1 µM and a TGI [50] of 3.13 µM. For the same compound, the TGI [51] was 7.69 µM, the TGI [52] was 4.31 µM and the TGI [53] was 3.06 µM. For the same compound, the TGI [54] was 3.23 µM, the TGI [55] was 3.37 µM and the TGI [56] was 3.08 µM. For the same compound, the TGI [57] was 3.76 µM, the TGI [58] was 3.6 µM and the TGI [59] was 3.28 µM.
`Cc1ccc2c(ccc3c[n+]4ccccc4c(C)c32)c1` was tested, and the TGI [1] was 19.1 µM, the TGI [2] was greater than 100 µM and the TGI [3] was 40.9 µM. It also gave a TGI [4] of 39 µM, a TGI [5] of 5.74 µM and a TGI [6] of 65.5 µM. For the same compound, the TGI [7] was greater than 100 µM, the TGI [8] was 3.84 µM and the TGI [9] was 26.6 µM. The TGI [10] was greater than 100 µM, the TGI [11] was 17.9 µM and the TGI [12] was 27.2 µM. It also gave a TGI [13] greater than 100 µM, a TGI [14] greater than 100 µM and a TGI [15] of 11.3 µM. The TGI [16] was 22.8 µM, the TGI [17] was 15.3 µM and the TGI [18] was 25.9 µM. It also gave a TGI [19] of 34.7 µM, a TGI [20] greater than 100 µM and a TGI [21] of 2.5 µM. The TGI [22] was 27.8 µM, the TGI [23] was 20.9 µM and the TGI [24] was 2.98 µM. The TGI [25] was 15.6 µM, the TGI [26] was 23.1 µM and the TGI [27] was 17.1 µM. The TGI [28] was greater than 100 µM, the TGI [29] was greater than 100 µM and the TGI [30] was 5.71 µM. The TGI [31] was 10.9 µM, the TGI [32] was greater than 100 µM and the TGI [33] was 10.7 µM. It also gave a TGI [34] greater than 100 µM, a TGI [35] of 4.02 µM and a TGI [36] of 10.8 µM. It also gave a TGI [37] of 65 µM, a TGI [38] of 16.2 µM and a TGI [39] of 15.9 µM. The TGI [40] was 67.2 µM, the TGI [41] was greater than 100 µM and the TGI [42] was 6.64 µM. For the same compound, the TGI [43] was 27.2 µM, the TGI [44] was 9.83 µM and the TGI [45] was 11.6 µM. For the same compound, the TGI [46] was 11.5 µM, the TGI [47] was 2.47 µM and the TGI [48] was 44.8 µM. It also gave a TGI [49] of 3.46 µM, a TGI [50] of 12.8 µM and a TGI [52] of 46.3 µM. It also gave a TGI [53] of 22.8 µM, a TGI [54] of 12.2 µM and a TGI [55] of 89.9 µM. The TGI [56] was 12.1 µM, the TGI [57] was 5.59 µM and the TGI [59] was greater than 100 µM.
